For 13 compounds, inhibition results are on record in patent US9133181B2, “Substituted 6-(4-hydroxy-phenyl)-1H-pyrazolo[3,4-b]pyridine derivatives as kinase inhibitors” (SANOFI, priority 2012, dated 2015).

T1 sequence (P05771 1-673 isoform P05771-2): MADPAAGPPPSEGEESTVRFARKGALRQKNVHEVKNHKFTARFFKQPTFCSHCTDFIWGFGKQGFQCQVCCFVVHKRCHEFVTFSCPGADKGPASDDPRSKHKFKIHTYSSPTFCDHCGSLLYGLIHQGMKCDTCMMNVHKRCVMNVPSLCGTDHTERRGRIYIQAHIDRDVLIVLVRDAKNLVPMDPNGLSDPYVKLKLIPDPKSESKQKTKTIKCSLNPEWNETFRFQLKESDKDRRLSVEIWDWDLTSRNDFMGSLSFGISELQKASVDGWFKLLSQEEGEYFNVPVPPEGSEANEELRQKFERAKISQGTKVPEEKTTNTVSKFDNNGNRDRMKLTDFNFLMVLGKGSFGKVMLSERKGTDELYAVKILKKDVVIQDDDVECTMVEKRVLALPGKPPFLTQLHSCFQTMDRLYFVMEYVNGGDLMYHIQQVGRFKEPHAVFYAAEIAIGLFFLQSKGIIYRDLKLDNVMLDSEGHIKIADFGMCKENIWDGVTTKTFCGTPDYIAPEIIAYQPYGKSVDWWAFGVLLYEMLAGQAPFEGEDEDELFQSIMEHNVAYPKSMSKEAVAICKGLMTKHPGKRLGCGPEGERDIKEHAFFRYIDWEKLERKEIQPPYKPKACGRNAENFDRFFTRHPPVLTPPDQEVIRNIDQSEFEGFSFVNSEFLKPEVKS

The experiment addresses T1, human full-length recombinant PKC βII (Homo sapiens, UniProt P05771).
T1 construct: Active human full-length recombinant PKC βII; purchased Invitrogen GmbH, Darmstadt, Germany
The experiment is described as follows: Determination of PKC βII inhibition (Caliper mobility shift kinase assay). In kind it is biochemical. Conditions: final compound concentration 1.14 μM (±0.15 μM); 60 min incubation at 32° C. How it is done: Determination of PKC βII Inhibition
PKC βII inhibition was determined according to the following protocol:
Active human full-length recombinant PKC βII and the peptide substrate, Fluorescein-RFARKGSLRQKNV, were purchased from Invitrogen GmbH, Darmstadt, Germany. Adenosine-5′-triphosphate (ATP), bovine serum albumine (BSA), dimethylsulphoxide (DMSO), 4-(2-hydroxyethyl)piperazine-1-ethanesulfonic acid (Hepes), Triton X-100, 1,2-Dioleoyl-sn-glycerol (DAG), L-α-Phosphatidyl-L-serine (PS), calcium chloride (CaCl2), and Pluronic F-68 were purchased from Sigma-Aldrich, Munich, Germany. Magnesium chloride, 1 M sodium hydroxide solution, 1M hydrochloric acid solution and EDTA were obtained from Merck Biosciences, Darmstadt, Germany.
Test compounds were diluted to three times the test concentration in buffer 1 (30 mM Hepes-NaOH, pH 7.4, 0.01% Pluronic F-68 and 3% (v/v) DMSO). The […] enzyme was diluted to a concentration of 30 ng/ml in buffer 2 (30 mM Hepes-NaOH, pH 7.4, 15 mM MgCl2, 150 μM CaCl2, 150 μg/ml PS, 60 μg/ml DAG, and 0.045% (w/v) Triton X-100). The peptide substrate and ATP were diluted to concentrations of 3 μM and 120 μM, respectively, in buffer 2. Two μl of the compound solution were mixed with 2 μl of the diluted enzyme in a 384-well small volume microtiter plate (Greiner, Bio-One, Frickenhausen, Germany), and the kinase reaction was initiated by addition of 2 μl of the solution containing peptide substrate and ATP. After 60 min incubation at 32° C., the reaction was stopped by addition of 20 μl of a solution containing 130 mM Hepes-NaOH, pH 7.4, 0.0195% (v/v) Brij-35, 6.5 mM EDTA, 0.13% chip coating reagent 3 (Caliper Lifescience Inc, Hopkinton, Mass.) and 6.5% (v/v) DMSO. Phosphorylation of the substrate peptide was then detected on a Caliper 3000 instrument essentially as described by Pommereau et al (J. Biomol. Screening 2004, 9(5), 409-416). Separation conditions were as follows: Pressure −0.8 psi, upstream voltage −3000 V, downstream voltage −800 V. Positive controls (buffer 1 instead of compound) and negative controls (buffer 1 instead of compound and buffer 2 instead of kinase solution) were run in parallel on each plate. Fractional turnover (R) was determined as the height of the peak of the phosphorylated peptide product divided by the sum of the unphosphorylated substrate and phosphorylated product peak heights. Percent-inhibition values for the test compounds were determined using the formula % Inhibition=100*(1−(Rcompound−Rnegative control)/(Rpositive control−Rnegative control).
In the following table % inhibition values observed with example compounds at a final concentration of 1.14 μM (±0.15 μM) are listed: […]
Turning to `Cc1n[nH]c2nc(-c3ccc(O)cc3F)cc(CN3CC(C)(C4CC4)NCC3(C)C)c12` (stereo not shown) [Example 23, 4-[4-(5-Cyclopropyl-2,2,5-trimethyl-piperazin-1-ylmethyl)-3-methyl-1H-pyrazolo[3,4-b]pyridin-6-yl]-3-fluoro-phenol], the inhibition at 1.14 µM is 99%.
In the case of `Cc1n[nH]c2nc(-c3ccc(O)cc3F)cc(CN3CCCC(C)(N)C3)c12` (stereo not shown) [Example 24, 4-[4-(3-Amino-3-methyl-piperidin-1-ylmethyl)-3-methyl-1H-pyrazolo[3,4-b]pyridin-6-yl]-3-fluoro-phenol] it was 94%; in that of `Cc1n[nH]c2nc(-c3ccc(O)cc3F)cc(CN3CCCNC(C)C3)c12` (stereo not shown) [Example 25, 3-Fluoro-4-[3-methyl-4-(3-methyl-[1,4]diazepan-1-ylmethyl)-1H-pyrazolo[3,4-b]pyridin-6-yl]-phenol], 102%.
To `Cc1n[nH]c2nc(-c3ccc(O)cc3F)cc(CN3CCNCC3(C)C)c12` [Example 26, 4-[4-(2,2-Dimethyl-piperazin-1-ylmethyl)-3-methyl-1H-pyrazolo[3,4-b]pyridin-6-yl]-3-fluoro-phenol] belongs 92%.
In the case of `Cc1n[nH]c2nc(-c3ccc(O)cc3F)cc(CN3C[C@@H](C)NC[C@@H]3C)c12` [Example 27, 4-[4-((2S,5R)-2,5-Dimethyl-piperazin-1-ylmethyl)-3-methyl-1H-pyrazolo[3,4-b]pyridin-6-yl]-3-fluoro-phenol] it was 83%.
Consider `Cc1n[nH]c2nc(-c3ccc(O)cc3F)cc(CN3CC(C)(C)NCC3(C)C)c12` [Example 28, 3-Fluoro-4-[3-methyl-4-(2,2,5,5-tetramethyl-piperazin-1-ylmethyl)-1H-pyrazolo[3,4-b]pyridin-6-yl]-phenol], for which the inhibition at 1.14 µM was determined as 97%.
To `CC[C@@H]1CN(Cc2cc(-c3ccc(O)cc3F)nc3[nH]nc(C)c23)[C@@H](C)CN1` [Example 30, 4-[4-((2S,5R)-5-Ethyl-2-methyl-piperazin-1-ylmethyl)-3-methyl-1H-pyrazolo[3,4-b]pyridin-6-yl]-3-fluoro-phenol] belongs 97%.
On to `CCC1(C)CNC(C)(C)CN1Cc1cc(-c2ccc(O)cc2F)nc2[nH]nc(C)c12` (stereo not shown) [Example 31, 4-[4-(2-Ethyl-2,5,5-trimethyl-piperazin-1-ylmethyl)-3-methyl-1H-pyrazolo[3,4-b]pyridin-6-yl]-3-fluoro-phenol], for which the inhibition at 1.14 µM worked out at 101%.
To `CCC1(CC)CNC(C)(C)CN1Cc1cc(-c2ccc(O)cc2F)nc2[nH]nc(C)c12` [Example 32, 4-[4-(2,2-Diethyl-5,5-dimethyl-piperazin-1-ylmethyl)-3-methyl-1H-pyrazolo[3,4-b]pyridin-6-yl]-3-fluoro-phenol] belongs 101%; to `Cc1n[nH]c2nc(-c3ccc(O)cc3)cc(CN3CC4(CCCC4)NCC3C)c12` (stereo not shown) [Example 33, 4-[3-Methyl-4-(8-methyl-6,9-diaza-spiro[4.5]dec-9-ylmethyl)-1H-pyrazolo[3,4-b]pyridin-6-yl]-phenol], 93%; to `Cc1n[nH]c2nc(-c3ccc(O)cc3F)cc(CN3CC(C)(C)NCC3(C)C3CC3)c12` (stereo not shown) [Example 34, 4-[4-(2-Cyclopropyl-2,5,5-trimethyl-piperazin-1-ylmethyl)-3-methyl-1H-pyrazolo[3,4-b]pyridin-6-yl]-3-fluoro-phenol], 73%.
For the compound `Cc1n[nH]c2nc(-c3ccc(O)cc3F)cc(CN3CC4(CCCC4)NCC3C)c12` (stereo not shown) [Example 35, 3-Fluoro-4-[3-methyl-4-(8-methyl-6,9-diaza-spiro[4.5]dec-9-ylmethyl)-1H-pyrazolo[3,4-b]pyridin-6-yl]-phenol], the inhibition at 1.14 µM was 78%.
In the case of `Cc1n[nH]c2nc(-c3ccc(O)cc3F)cc(CN3CC4(CCCC4)NCC3(C)C)c12` [Example 36, 4-[4-(8,8-Dimethyl-6,9-diaza-spiro[4.5]dec-9-ylmethyl)-3-methyl-1H-pyrazolo[3,4-b]pyridin-6-yl]-3-fluoro-phenol] it was 94%.
